We go through 13 compounds from patent US4347323A, “Glycerol kinase from Streptomyces canus” (Toyo Jozo Kabushiki Kaisha, priority 1979, dated 1982).

“Also recorded” adds a separate entry of the source. Read-outs that look alike come from different tables or passages of the source.

Assay [1] deals with glycerol kinase (GK) produced by Streptomyces canus A 2408. The experiment in a line: Specific activity for nucleotide. The assay is classed as biochemical. Particulars: for Relative activity (%): 10 mM ATP replaced by the nucleotide, formed glycero-3-phosphate measured. The method, then:
(ii) specific activity for nucleotide:
In assay method (i) hereinabove, 10 mM ATP is replaced by CTP, ITP, GTP and UTP and measures the formed glycero-3-phosphate.

Assay [2] deals with Escherichia coli GK (E.Co-GK). Particulars: cited from earlier work.
Assay [3] has as its system glycerol kinase (GK) produced by Streptomyces canus A 2408. The experiment in a line: Km value of GK for its substrates. It is filed as biochemical. The method, then: The above mixture (1 ml) is preincubated at 37° C. for 5 minutes and GK solution (50 μl) [diluted with GL-buffer (10 mM phosphate buffer containing 10 mM glycerol, pH 7.5)] is added thereto and incubated at 37° C. for 10 minutes.
One unit of GK is defined as liberating […] of glycero-3-phosphate per minute.
Enzyme activity is calculated by the following equation: [formula]

For assay [4] the test system is unchanged. In words: Effect of metal ions and p-chloromercuribenzoate (PCMB). It is filed as biochemical. The text has this: Effect of metal ions and p-chloromercuribenzoate (PCMB)
Assay [5] has the same test system. The experiment in a line: Substrate specificity for glycerol, dihydroxyacetone phosphate and D-glyceraldehyde (ADP assay). The settings on record: for Relative activity: substrate 0.1 M, 0.05 ml, 37° C. for 10 minutes, ADP assayed at 550 nm. It is filed as biochemical. Here is the method:
(i) specificity for glycerol, dihydroxyacetone phosphate and D-glyceraldehyde: […]
The reaction mixture (0.95 ml) is preincubated at 37° C. for 3 minutes, and the enzyme solution (dissolved in 10 mM phosphate buffer, pH 7.5, 0.05 ml) is added thereto. Then the mixture is incubated at 37° C. for 10 minutes. The reaction is stopped by boiling for 3 minutes. After cooling to 37° C., the amount of ADP is assayed. ADP is assayed by adding an ADP-assay solution (2.0 ml) comprising the following mixture: […]
The reaction mixture is incubated at 37° C. for 15 minutes. Color formation is measured at 550 nm to calculate the substrate specificity.

The subject of assay [6] is pigeon heart GK (Pig.-GK). The settings on record: cited from earlier work.

As for `Nc1ncnc2c1ncn2[C@@H]1O[C@H](COP(=O)(O)OP(=O)(O)OP(=O)(O)O)[C@@H](O)[C@H]1O` [ATP], in assay [1], the “nucleotide specificity (in words)” value was “especially high specificity” and the “Relative activity (%)” value came out at 100%. Besides, the “nucleotide specificity (in words)” value in assay [2] is reported as “acts only for ATP”. Moreover, the Michaelis constant (Km) (usually the substrate concentration at which the rate is half of its maximum) in assay [3] was 200 µM.

Turning to `Nc1ccn([C@@H]2O[C@H](COP(=O)(O)OP(=O)(O)OP(=O)(O)O)[C@@H](O)[C@H]2O)c(=O)n1` [CTP], in assay [1], the “nucleotide specificity (in words)” value was “especially high specificity” and the “Relative activity (%)” value amounted to 92%.

In the case of `[Ca+2].[Cl-].[Cl-]` [CaCl2], the “Effect of metal ion on GK activity (in words)” value (“Effect of metal ion” for short) in assay [4] was “inhibited”. Besides, in assay [4] (reagent 1.0 mM), the “Relative Activity (%) with 1 mM Mg++” value worked out at 54% and the “Relative Activity (%) without Mg++” value is 0%.

The compound `O=C[C@H](O)CO` [D-glyceraldehyde] showed a Relative activity in assay [5] of 20%. Besides, the Km in assay [3] is 350 µM.

Take `Nc1nc2c(ncn2[C@@H]2O[C@H](COP(=O)(O)OP(=O)(O)OP(=O)(O)O)[C@@H](O)[C@H]2O)c(=O)[nH]1` [GTP]: the “Relative activity (%)” value in assay [1] came to 19%.

On to `O=c1[nH]cnc2c1ncn2[C@@H]1O[C@H](COP(=O)(O)OP(=O)(O)OP(=O)(O)O)[C@@H](O)[C@H]1O` [ITP], for which the “Relative activity (%)” value in assay [1] is given as 47%.

For the compound `[Cl-].[Cl-].[Mg+2]` [MgCl2], the “Effect of metal ion” value in assay [4] is “activated”. In assay [4] (reagent 1.0 mM), the “Relative Activity (%) with 1 mM Mg++” value was found to be 100% and the “Relative Activity (%) without Mg++” value came to 100%.

As to `[Cl][Mn][Cl]` [MnCl2], the “use as divalent metal ion (in words)” value in assay [2] was “can be used”. Besides, the “use as divalent metal ion (in words)” value in assay [6] is “can be used”. Besides, the “Effect of metal ion” value in assay [4] (listed as Mn++) is listed as “inhibited; also recorded: strongly inhibits”. In assay [4] (reagent 1.0 mM), the “Relative Activity (%) with 1 mM Mg++” value turned out to be 14% and the “Relative Activity (%) without Mg++” value is recorded as 6%.

On to `O=C(O)c1cc[c]([Hg][Cl])cc1` [PCMB, p-chloromercuribenzoate], for which the “Inhibition of GK activity by PCMB (in words)” value in assay [4] (7.5×10^-6 M of PCMB) is “completely inhibits”. The “Relative Activity (%) with 1 mM Mg++” value was 13% in assay [4] (PCMB 5.0 × 10^-6 M) and 0% in assay [4] (PCMB 7.5 × 10^-6 M).

For the compound `O=c1ccn([C@@H]2O[C@H](COP(=O)(O)OP(=O)(O)OP(=O)(O)O)[C@@H](O)[C@H]2O)c(=O)[nH]1` [UTP], the “Relative activity (%)” value in assay [1] was found to be 18%.

In assay [5], `O=C(CO)CO` [dihydroxyacetone] registered a Relative activity of 74%. Moreover, the Km in assay [3] was found to be 660 µM.

In the case of `OCC(O)CO` [glycerol], in assay [5] (glycerol versus dihydroxyacetone phosphate), the “substrate specificity (in words)” value is recorded as “higher specificity”. The compound further yielded a Relative activity in assay [5] of 100%. Besides, in assay [3], the Km turned out to be 48 µM.

dihydroxyacetone phosphate: the “activity for dihydroxyacetone phosphate as compared with glycerol” value in assay [2] was “nearly twice”.
